Patent publication US12440473B2 (priority 2019, dated 2025)
Like-named read-outs stand apart in the source and are kept apart here.

Columns and labels:
diet-induced obese mice = assay: Diet-induced obese mice on high fat diet, daily oral gavage for 12 weeks; details: for Cholesterol / Glucose: Results (Day 84), 6 h fasted samples
Experimental: Forty C57BL/6J mice were fed a high fat diet (HFD) (D12492, 60% kcals fat) for 8 weeks. Study mice were then divided into the following four groups of ten: vehicle controls, low dose C17:0-treated (5 mg/kg body weight), high-dose C17:0-treated (50 mg/kg body weight), and low-dose C15:0-treated (5 mg/kg body weight).
“Results” values are based on 6 h fasted samples.

full length human PPAR-α = target: T1, full length human PPAR-α (Homo sapiens, UniProt Q07869); assay: PathHunter NHR Protein Interaction assay, PPAR-α agonist activity (CHO cells); format: cell-based; details: for Emax: CHO, PPAR-alpha, free fatty acid form, normalized to control compound (GW7647), read-out: Maximum Response; for PPAR-α EC50 % improvement over FFA form: compared to free fatty acid form; for PPAR-α agonist maximum activity: text of Example 3; for EC50: Table 5, read-out: Cell-Based PPAR Agonist Activity Half Maximal Effective Concentration (EC50) PPAR-α
T1 construct: host or cells: Chinese hamster ovary (CHO) cell lines
T1 sequence (Q07869 1-468): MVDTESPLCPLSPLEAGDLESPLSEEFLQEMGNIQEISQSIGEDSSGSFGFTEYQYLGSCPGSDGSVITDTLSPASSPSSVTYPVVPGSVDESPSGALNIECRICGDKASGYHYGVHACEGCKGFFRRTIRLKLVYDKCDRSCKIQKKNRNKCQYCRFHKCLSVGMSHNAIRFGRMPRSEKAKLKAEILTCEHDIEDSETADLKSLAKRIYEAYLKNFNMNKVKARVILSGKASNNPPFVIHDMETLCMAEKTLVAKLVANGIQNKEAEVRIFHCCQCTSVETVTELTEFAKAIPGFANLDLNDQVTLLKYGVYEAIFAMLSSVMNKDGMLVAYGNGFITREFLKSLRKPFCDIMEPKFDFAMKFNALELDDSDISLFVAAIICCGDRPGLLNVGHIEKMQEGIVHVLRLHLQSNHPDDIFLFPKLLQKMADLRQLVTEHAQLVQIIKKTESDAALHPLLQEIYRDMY
Experimental: (§1) PPAR-α, PPAR-δ, and PPAR-γ agonist activities were measured using PathHunter Nuclear Hormone Receptor (NHR) Protein Interaction (Pro) assays (DiscoverX, Freemont, California). Briefly, Chinese hamster ovary (CHO) cell lines were used to monitor the activation of PPAR-α, PPAR-δ, and PPAR-γ in a homogenous, non-imaging assay format using Enzyme Fragment Complementation (EFC). The NHR Pro assay was based on detection of protein-protein interactions between activated, full length PPAR-α, PPAR-δ, and PPAR-γ proteins and a nuclear fusion protein containing Steroid Receptor Co-activator Peptide (SRCP) domains with one or more canonical LXXLL interaction motifs. PPAR-α, PPAR-δ, and PPAR-γ were tagged with the ProLink component of the EFC assay system, and the SRCP domain was fused to the enzyme acceptor component (EA) expressed in the nucleus. When bound by ligand, PPAR-α, PPAR-δ, or PPAR-γ migrated to the nucleus and recruited the SRCP domain, whereby complementation occurred, generating a unit of active β-Galactosidase (β-Gal) and production of chemiluminescent signal. […] Percentage activity was calculated using the following formula: % Activity=100%×(mean RLU of test sample−mean RLU of vehicle control)/(mean MAX control ligand−mean RLU of vehicle control).

full length human PPAR-δ = target: T2, full length human PPAR-δ (Homo sapiens, UniProt Q03181); assay: PathHunter NHR Protein Interaction assay, PPAR-δ agonist activity (CHO cells); format: cell-based; details: for Emax: CHO, free fatty acid form, normalized to control compound (L-165,041), read-out: Maximum Response; for PPAR-δ EC50 % improvement over FFA form: compared to free fatty acid form
T2 construct: host or cells: Chinese hamster ovary (CHO) cell lines
T2 sequence (Q03181 1-441): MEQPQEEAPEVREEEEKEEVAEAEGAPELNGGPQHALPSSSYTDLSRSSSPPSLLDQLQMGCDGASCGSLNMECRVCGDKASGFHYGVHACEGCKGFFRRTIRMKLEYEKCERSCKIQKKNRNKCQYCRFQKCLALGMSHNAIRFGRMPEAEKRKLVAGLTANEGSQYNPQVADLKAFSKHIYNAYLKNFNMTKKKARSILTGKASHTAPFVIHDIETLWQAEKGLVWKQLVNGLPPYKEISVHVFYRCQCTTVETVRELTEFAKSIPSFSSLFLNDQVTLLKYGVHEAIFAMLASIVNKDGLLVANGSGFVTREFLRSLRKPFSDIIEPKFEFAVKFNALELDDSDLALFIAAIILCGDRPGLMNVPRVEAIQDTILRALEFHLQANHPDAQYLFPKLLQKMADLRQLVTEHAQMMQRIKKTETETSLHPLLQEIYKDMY
Experimental: as §1

full length human PPAR-γ = target: T3, full length human PPAR-γ (Homo sapiens, UniProt P37231); assay: PathHunter NHR Protein Interaction assay, PPAR-γ agonist activity (CHO cells); format: cell-based; details: for Emax: CHO, PPAR-gamma, free fatty acid form, normalized to control compound (Troglitazone), read-out: Maximum Response
T3 construct: host or cells: Chinese hamster ovary (CHO) cell lines
T3 sequence (P37231 1-505): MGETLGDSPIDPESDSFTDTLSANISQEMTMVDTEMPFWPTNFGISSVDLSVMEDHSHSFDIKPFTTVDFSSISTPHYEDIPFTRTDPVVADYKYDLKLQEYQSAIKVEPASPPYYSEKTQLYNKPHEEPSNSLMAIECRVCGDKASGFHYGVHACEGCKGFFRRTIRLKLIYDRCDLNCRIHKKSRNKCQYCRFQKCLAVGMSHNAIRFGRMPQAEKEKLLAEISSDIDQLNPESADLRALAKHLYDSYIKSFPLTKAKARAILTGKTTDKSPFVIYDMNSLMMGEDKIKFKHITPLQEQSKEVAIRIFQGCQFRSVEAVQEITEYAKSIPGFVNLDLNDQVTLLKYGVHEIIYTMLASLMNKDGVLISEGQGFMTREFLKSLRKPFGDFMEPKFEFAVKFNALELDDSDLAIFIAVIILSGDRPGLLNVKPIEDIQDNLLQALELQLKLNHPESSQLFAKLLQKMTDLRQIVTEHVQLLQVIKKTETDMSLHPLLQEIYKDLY
Experimental: as §1

cannabinoid receptor 1 = cannabinoid receptor 1 (Homo sapiens, UniProt P21554); assay: Cannabinoid receptor 1 agonist activity (Example 4); details: for % maximum activity compared to positive control (CP55940): cannabinoid receptor 1 agonist (Table 6)
Chain of cannabinoid receptor 1 (P21554 whole entry, species assumed): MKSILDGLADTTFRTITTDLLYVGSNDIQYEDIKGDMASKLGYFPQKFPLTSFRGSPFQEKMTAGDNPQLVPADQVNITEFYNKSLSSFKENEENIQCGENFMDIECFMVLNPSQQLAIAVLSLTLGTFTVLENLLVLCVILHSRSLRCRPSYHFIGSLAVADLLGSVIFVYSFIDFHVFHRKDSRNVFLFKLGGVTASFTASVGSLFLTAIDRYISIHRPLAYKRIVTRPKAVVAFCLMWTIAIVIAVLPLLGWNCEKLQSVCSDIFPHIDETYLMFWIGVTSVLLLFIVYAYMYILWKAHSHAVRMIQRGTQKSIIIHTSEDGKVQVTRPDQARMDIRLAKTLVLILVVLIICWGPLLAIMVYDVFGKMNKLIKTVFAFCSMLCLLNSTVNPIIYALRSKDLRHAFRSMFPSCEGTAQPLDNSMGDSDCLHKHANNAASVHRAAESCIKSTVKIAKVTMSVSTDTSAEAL

[1] = tested on: G protein-coupled receptors, kinases, transporters, ion channels, nuclear receptors, non-kinase enzymes; assay: SAFETYscan E/IC50 ELECT panel, agonist and antagonist activities across 78 assays
Text: (§2) Briefly, a variety of standardized and optimized functional assays were used to assess and compare the selected compounds' pharmacologic targets, including G protein-coupled receptors (ADORA2A, ADRA1A, ADRA2A, ADRB1, ADRB2, CB1, CB2, CCK1, D1, D2S, ETA, H1, H2, M1 M2, M3, OPRD1, OPRK1, OPRM1, 5HTR1A, 5HTR1B, 5HTR2A, 5HTR2B, AVPR1A), kinases (LCK, INSR, VEGFR2, ROCK1), transporters (DAT, NET, SERT), ion channels (GABAA, 5-HT3, CA1.2, HERG, KVLQT1/MINK, NA1.5, NMDAR1/2B, NACHR), nuclear receptors (AR, GR), and non-kinase enzymes (COX1, COX2, ACHE, MAO-A, PDE3A, PDE4D2). […] Maximum activity (%) was also determined based on comparisons with internal positive controls, which were assigned 100% activity.

CB1 receptor [2] = target: T4, CB1 receptor (Homo sapiens, UniProt P21554); details: for CB1-agonist maximum activity: positive control CP 55940 assigned 100% activity
T4 sequence (P21554 whole entry): as the sequence (P21554 whole entry, species assumed) above
Text: as §2

CB1 receptor [3] = target: T4, CB1 receptor; assay: cell-based
Text: as §2

OPRM1 = OPRM1 (Homo sapiens, UniProt P35372)
Chain of OPRM1 (P35372 whole entry): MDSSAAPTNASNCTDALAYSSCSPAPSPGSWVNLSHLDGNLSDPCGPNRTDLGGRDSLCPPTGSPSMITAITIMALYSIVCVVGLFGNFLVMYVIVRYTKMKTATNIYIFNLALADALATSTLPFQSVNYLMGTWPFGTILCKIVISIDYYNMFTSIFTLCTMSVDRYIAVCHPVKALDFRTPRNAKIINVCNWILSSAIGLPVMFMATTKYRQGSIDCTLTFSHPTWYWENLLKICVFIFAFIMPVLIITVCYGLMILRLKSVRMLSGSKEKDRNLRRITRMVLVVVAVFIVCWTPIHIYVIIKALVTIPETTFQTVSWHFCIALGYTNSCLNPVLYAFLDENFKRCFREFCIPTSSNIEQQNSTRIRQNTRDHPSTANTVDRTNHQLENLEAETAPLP
Text: as §2

CCCCCCCCCCCCCCCCC(=O)O [C17:0, heptadecanoic acid]
metabolic syndrome compared to controls (diet-induced obese mice; C17:0 5 and 50 mg/kg, vs vehicle control group): trended toward attenuated metabolic syndrome
Cholesterol (diet-induced obese mice; 5 mg/kg daily oral): 197 ± 31 mg/dL
Glucose (diet-induced obese mice; 5 mg/kg daily oral): 296 ± 23 mg/dL
Cholesterol (diet-induced obese mice; 50 mg/kg daily oral): 187 ± 44 mg/dL
Glucose (diet-induced obese mice; 50 mg/kg daily oral): 282 ± 31 mg/dL
proinflammatory cytokines and chemokines (TNF-α and MCP-1) compared to controls (diet-induced obese mice; high-dose 50 mg/kg, vs vehicle control group): significantly lower
Emax (full length human PPAR-α): 16.7%
Emax (full length human PPAR-δ; PPAR-delta): 39.8%
EC50 (full length human PPAR-δ; PPAR-delta, free fatty acid form (Table 4), read-out: EC50): 17400 nM
Emax (full length human PPAR-γ): 1%

CCCCCCCCCCCCOCC(=O)O [3-oxa-C15:0, 2-(dodecyloxy)acetic acid]
EC50 (cannabinoid receptor 1): 570 nM
% maximum activity compared to positive control (CP55940) (cannabinoid receptor 1): 83%

CCCCCCCCCCCCCC(C)C(=O)O (centres unmarked) [2-methyl-C15:0, 2-methylpentadecanoic acid]
additional activity across 78 assays [1]: no additional activity was detected

CCCCCCCCCCCCCC(CC)(CC)C(=O)O [diethyl-C15:0]
EC50 (cannabinoid receptor 1): 3300 nM
% maximum activity compared to positive control (CP55940) (cannabinoid receptor 1): 93%

CCCCCCCCCCCCCC(CC)C(=O)O (centres unmarked) [2-ethyl-C15:0, 2-ethylpentadecanoic acid]
CB1-agonist maximum activity (CB1 receptor [2]): 53.7%
PPAR-α EC50 % improvement over FFA form (full length human PPAR-α): 90%
PPAR-α agonist maximum activity (full length human PPAR-α): 170%
EC50 (CB1 receptor [3]): 27 nM
PPAR-δ EC50 % improvement over FFA form (full length human PPAR-δ): 89%
PPAR-δ agonist maximum activity (full length human PPAR-δ; text of Example 3): 72.4%
EC50 (full length human PPAR-δ; text of Example 3, read-out: PPAR-δ agonist EC50): 28 nM
PPAR-γ EC50 % improvement over FFA form (full length human PPAR-γ; compared to free fatty acid form): >49%
PPAR-γ agonist activity (full length human PPAR-γ; in words): acquired PPAR-γ agonist activity

CCCCCCCCCCCCCC(=O)O [C14:0, myristic acid, reference compound]
Emax (full length human PPAR-α): 74.1%
EC50 (full length human PPAR-α): 8400 nM
Emax (full length human PPAR-γ): 19%

CCCCCCCCCCCCCCC(=O)O [C15:0, pentadecanoic acid]
metabolic syndrome (glucose, insulin, cholesterol, proinflammatory cytokines) compared to controls (diet-induced obese mice; 5 mg/kg, vs vehicle control group): attenuated metabolic syndrome
Cholesterol (diet-induced obese mice; 5 mg/kg daily oral): 183 ± 25 mg/dL
Glucose (diet-induced obese mice; 5 mg/kg daily oral): 245 ± 37 mg/dL
Emax (full length human PPAR-α): 65.8%
Emax (full length human PPAR-δ; PPAR-delta): 52.8%
additional activity across 78 assays [1]: no additional activity was detected
Emax (full length human PPAR-γ): 7%

CCCCCCCCCCCCCCCC(=O)O [C16:0, palmitic acid, reference compound]
Emax (full length human PPAR-α): 56.1%
Emax (full length human PPAR-γ): 4.7%

CCCCCCCCCCCCCCc1nnn[nH]1 [1-tetrazole-C15:0]
CB1-agonist maximum activity (CB1 receptor [2]): 48.3%
IC50 (CB1 receptor [2]; read-out: CB1-agonist activity IC50, ten-point concentration curves): 1300 nM
EC50 (full length human PPAR-α): 2600 nM
PPAR-α EC50 % improvement over FFA form (full length human PPAR-α): 77%
PPAR-α agonist maximum activity (full length human PPAR-α): 32%
EC50 (full length human PPAR-δ; Table 5, read-out: Cell-Based PPAR Agonist Activity Half Maximal Effective Concentration (EC50) PPAR-δ): 500 nM
PPAR-δ EC50 % improvement over FFA form (full length human PPAR-δ): 81%
PPAR-δ agonist maximum activity (full length human PPAR-δ; text of Example 3): 18%
EC50 (full length human PPAR-γ; Table 5, read-out: Cell-Based PPAR Agonist Activity Half Maximal Effective Concentration (EC50) PPAR-γ): > 100000 nM
OPRM1 antagonist maximum activity (OPRM1): 46.2%
IC50 (OPRM1; read-out: OPRM1 antagonist IC50, ten-point concentration curves): 3900 nM
